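96-well plates; 48 h exposure; 5 concentrations. Endpoints by linear interpolation between flanking doses. Not reached: highest tested concentration assigned. GI50 = concentration required for 50% inhibition of growth. TGI denotes the concentration required for complete inhibition of growth.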
Assays:
Experiment in all cases: inhibition of tumour cell growth, NCI panel, 48 h
SNB-19 CNS = test system: SNB-19 CNS
EKVX NSCLC = test system: EKVX NSCLC
DU-145 prostate = test system: DU-145 prostate
786-0 renal = test system: 786-0 renal
CCRF-CEM leukemia = test system: CCRF-CEM leukemia
LOX IMVI melanoma = test system: LOX IMVI melanoma
KM12 colon = test system: KM12 colon
SK-MEL-5 melanoma = test system: SK-MEL-5 melanoma
SN12C renal = test system: SN12C renal
RXF 393 renal = test system: RXF 393 renal

| SMILES | TGI (SNB-19 CNS) [µM] | TGI (EKVX NSCLC) [µM] | TGI (DU-145 prostate) [µM] | TGI (786-0 renal) [µM] | TGI (CCRF-CEM leukemia) [µM] | TGI (LOX IMVI melanoma) [µM] | TGI (KM12 colon) [µM] | TGI (SK-MEL-5 melanoma) [µM] | TGI (SN12C renal) [µM] | TGI (RXF 393 renal) [µM] | GI50 (SNB-19 CNS) [µM] | GI50 (DU-145 prostate) [µM] | GI50 (786-0 renal) [µM] | GI50 (CCRF-CEM leukemia) [µM] | GI50 (LOX IMVI melanoma) [µM] | GI50 (KM12 colon) [µM] | GI50 (SK-MEL-5 melanoma) [µM] | GI50 (SN12C renal) [µM] | GI50 (RXF 393 renal) [µM] | GI50 (EKVX NSCLC) [µM] |
| --- | --- | --- | --- | --- | --- | --- | --- | --- | --- | --- | --- | --- | --- | --- | --- | --- | --- | --- | --- | --- |
| CC(=O)OCCc1cc2ccccc2oc1=O | > 100 | > 100 | > 100 | > 100 | > 100 | > 100 | > 100 | > 100 | > 100 | > 100 | – | – | – | – | – | – | – | – | – | – |
| COc1cc(OC)c(OC)cc1/C=C\c1ccnc2ccccc12 | > 74.5 | > 46.3 | > 100 | 61.6 | 67.8 | > 42.5 | > 67.5 | 19.7 | > 100 | 5.28 | – | – | – | – | – | – | – | – | – | – |
| Cc1cc(=O)[nH]c2c1C(=O)c1c(C)cc(=O)n(C)c1C2=O | 0.0358 | 0.366 | 0.0479 | 0.182 | > 10 | 0.26 | 0.192 | 0.0284 | 0.195 | 0.281 | – | – | – | – | – | – | – | – | – | – |
| Cc1ncc([N+](=O)[O-])n1CCOc1ccc(C(=O)/C=C/c2ccc(C(F)(F)F)cc2)cc1 | 15.7 | – | 11.9 | 3.54 | 6 | 5.6 | 4.22 | 20.3 | 11.6 | 17.6 | 3.34 | 3.56 | 1.87 | 2.02 | 2.21 | 2.01 | 6.1 | 3.03 | 4.54 | – |
| CC(C)OC(=O)c1cc(NC(=S)OC(C)C)ccc1Cl | > 56.3 | 32.7 | > 62.1 | > 55.9 | > 96.3 | 31.2 | 44.3 | 33.1 | 34.4 | 62.7 | – | – | – | – | – | – | – | – | – | – |
| NCC[PH+](c1ccccc1)c1ccccc1.NCC[PH+](c1ccccc1)c1ccccc1.[Cl-].[Pt+4] | > 100 | > 100 | > 100 | > 100 | > 73.2 | > 100 | > 100 | > 100 | > 100 | > 100 | 46.1 | > 100 | > 100 | 12.2 | > 100 | > 100 | > 100 | > 100 | > 100 | > 100 |
| Cn1cc(C2=C(c3cccc([N+](=O)[O-])c3)C(=O)NC2=O)c2ccccc21 | > 25 | – | > 25 | > 25 | > 25 | > 25 | 12.9 | 8.48 | > 25 | 9.4 | 19.6 | 12.7 | 6.45 | 7.19 | 3.94 | 5.05 | 3.63 | 9.61 | 2.12 | – |
| Nc1nc2c([nH]1)c1[nH]c3ccccc3c1c1[nH]c3ccccc3c21 | 25.5 | 30.8 | 26.4 | 22.6 | 12.4 | 32.5 | 21.2 | 27 | 29.7 | 19.4 | 12.8 | 13.5 | 9.44 | 3.33 | 16 | 6.91 | 14 | 15.3 | 6.08 | 14.1 |
